Assay results reported in US20240425478A1, “CYCLOPENTYLPYRAZOLE CDK2 INHIBITORS” (Genentech, Inc., priority 2021, published 2024).
Where two headings read alike, the source gives them in different places.

Columns and labels:
[1] = target: T1, Cyclin Dependent Kinase 1/Cyclin A2 (CDK1-cycA2) (Homo sapiens, UniProt P06493); assay: CDK1-cycA2 TR-FRET (Lance) enzyme assay; assay type: biochemical; conditions: for Ki: Table O, enzymatic assay; for FS CDK1/CDK2: fold selectivity, enzymatic Ki ratio
T1 construct: purchased ProQinase 0134-0054-1
T1 sequence (P06493 whole entry): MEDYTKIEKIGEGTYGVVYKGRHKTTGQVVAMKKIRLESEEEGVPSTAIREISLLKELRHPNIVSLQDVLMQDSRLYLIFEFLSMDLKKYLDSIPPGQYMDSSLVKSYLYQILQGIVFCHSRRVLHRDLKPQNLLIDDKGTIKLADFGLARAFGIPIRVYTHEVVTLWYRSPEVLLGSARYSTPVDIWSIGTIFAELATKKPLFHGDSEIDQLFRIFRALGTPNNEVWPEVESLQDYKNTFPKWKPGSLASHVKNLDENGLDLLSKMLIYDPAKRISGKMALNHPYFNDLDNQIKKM
T1 sequence (P20248 whole entry partner): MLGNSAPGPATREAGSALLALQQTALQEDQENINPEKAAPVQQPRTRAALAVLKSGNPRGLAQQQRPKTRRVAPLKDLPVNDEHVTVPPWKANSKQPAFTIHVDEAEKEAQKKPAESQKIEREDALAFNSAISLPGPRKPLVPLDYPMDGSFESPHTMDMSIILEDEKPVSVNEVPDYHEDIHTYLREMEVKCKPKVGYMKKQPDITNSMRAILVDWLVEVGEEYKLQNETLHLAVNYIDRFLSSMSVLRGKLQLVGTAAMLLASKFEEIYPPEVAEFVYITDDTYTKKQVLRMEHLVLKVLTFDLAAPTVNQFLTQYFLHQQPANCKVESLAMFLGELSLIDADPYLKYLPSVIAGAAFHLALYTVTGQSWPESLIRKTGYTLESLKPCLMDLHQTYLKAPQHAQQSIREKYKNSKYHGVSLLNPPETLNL
Procedure, shortened: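 TR-FRET (Lance) detection of phospho-4E-BP1 with a europium-labelled antibody after EDTA quench (15 mM final); signal taken as acceptor/donor ratio. Enzyme and compound were pre-incubated 30 min in HEPES pH 7.5 buffer with MgCl2, TCEP, BGG and Brij 35. Ki derived by Morrison fit.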

[2] = target: T2, Cyclin Dependent Kinase 2/Cyclin E1 (CDK2-cycE1) (Homo sapiens, UniProt P24941); assay: CDK2-cycE1 TR-FRET (LANCE) enzyme assay; assay type: biochemical; conditions: for FS CDK1/CDK2 / FS CDK4/CDK2: fold selectivity; for FS CDK1/CDK2: enzymatic CDK1 Ki over CDK2 Ki; for FS CDK4/CDK2: enzymatic CDK4 Ki over CDK2 Ki
T2 construct: purchased ProQinase 0050-0055-1
Procedure, shortened: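 Kinase reaction buffer: 50 mM HEPES pH 7.5, 10 mM MgCl2, 2 mM TCEP, 0.05% BGG, 0.01% Brij 35, with 30 min compound–enzyme pre-incubation.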

[3] = target: T3, Cyclin Dependent Kinase 4/Cyclin D3 (CDK4-cycD3) (Homo sapiens, UniProt P11802); assay: CDK4-cycD3 TR-FRET (LANCE) enzyme assay; assay type: biochemical; conditions: for Ki: Table O, enzymatic assay; for FS CDK4/CDK2: fold selectivity, enzymatic Ki ratio
T3 construct: purchased Carna Biosciences 04-105
T3 sequence (P11802 whole entry): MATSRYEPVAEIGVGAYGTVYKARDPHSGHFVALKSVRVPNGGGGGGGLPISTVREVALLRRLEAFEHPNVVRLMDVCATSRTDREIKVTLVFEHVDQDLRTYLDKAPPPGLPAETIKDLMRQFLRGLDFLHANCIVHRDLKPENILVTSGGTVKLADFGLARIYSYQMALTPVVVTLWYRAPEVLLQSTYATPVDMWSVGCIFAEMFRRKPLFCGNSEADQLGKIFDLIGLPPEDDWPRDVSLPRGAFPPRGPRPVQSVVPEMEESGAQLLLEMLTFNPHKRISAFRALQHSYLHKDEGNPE
T3 sequence (P30281 whole entry partner): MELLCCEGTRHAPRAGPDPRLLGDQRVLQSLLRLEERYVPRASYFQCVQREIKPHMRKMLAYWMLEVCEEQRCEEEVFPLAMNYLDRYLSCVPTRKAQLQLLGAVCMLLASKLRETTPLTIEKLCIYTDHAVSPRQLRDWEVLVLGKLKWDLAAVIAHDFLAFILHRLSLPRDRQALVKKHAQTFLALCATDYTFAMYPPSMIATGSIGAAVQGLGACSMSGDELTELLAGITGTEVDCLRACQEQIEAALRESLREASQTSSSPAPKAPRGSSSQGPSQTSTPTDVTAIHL
Procedure, shortened: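 Compound dose responses pre-incubated 30 min with enzyme mix in 50 mM HEPES pH 7.5, 10 mM MgCl2, 2 mM TCEP, 0.05% BGG, 0.01% Brij 35. Reaction quenched with EDTA (15 mM final); Eu-anti-phospho-4E-BP1 TR-FRET detection, acceptor/donor ratio. Ki derived by Morrison equation.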

[4] = system: OVISE (JCRB1043, CCNE1-amplified); assay: OVISE EdU incorporation cell proliferation assay (CDK2-dependent); assay type: cell-based; conditions: for IC50 / FS SKOV-3/OVISE / FS p-H3/OVISE: Table O; for IC50: cellular assay, read-out: CDK2 OVISE IC50; for FS SKOV-3/OVISE / FS p-H3/OVISE: fold selectivity; for FS SKOV-3/OVISE: cellular SKOV-3 IC50 over OVISE IC50; for FS p-H3/OVISE: cellular p-H3 IC50 over OVISE IC50
Procedure, shortened: (§1)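 EdU incorporation (0.5 μM final, last 8 h) follows a 16 h compound exposure at 37 °C, 5% CO2 in RPMI plus 10% FBS, 0.5% DMSO. After fixation, imaging scores EdU-positive cells; a 4-parameter logistic fit of that fraction gives IC50.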

SKOV-3 (ATCC HTB-77) = assay: SKOV-3 EdU incorporation cell proliferation assay (CDK4/6-dependent); assay type: cell-based; conditions: for IC50: Homo sapiens, SK-OV-3, Table O, cellular assay, read-out: CDK4/6 SKOV-3 IC50; for FS SKOV-3/OVISE: fold selectivity, cellular IC50 ratio
Procedure, shortened: as §1

HCT116 cells = assay: p-H3 HCT-116 mitotic release cell proliferation assay (cellular CDK1); assay type: cell-based; conditions: Homo sapiens, HCT-116; Table O, cellular assay; read-out: CDK1 p-H3 IC50
Procedure, shortened: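 Phospho-Histone H3 (Ser10) in lysates was quantified by a two-antibody HTRF FRET read (≥2 h, room temperature). Before this, HCT116 cells held in mitosis by 16 h of 500 nM nocodazole were treated with compound for 4 h at 37 °C, 0.1% DMSO.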

[5] = Table O, enzymatic assay, read-out: CDK2 Ki

Ki [1] [nM] | Ki [2, 5] [nM] | FS CDK1/CDK2 ([2]; Table O) | FS CDK4/CDK2 ([2]; Table O) | Ki [3] [nM] | IC50 (SKOV-3 (ATCC HTB-77)) [µM] | IC50 (HCT116 cells) [nM] | Compound | IC50 [4] [nM] | FS SKOV-3/OVISE [4] | FS p-H3/OVISE [4] | other results
61 | 1.9 | 32 | 79 | 150 | 3.3 | 210 | Cc1cc(Nc2cc([C@H]3CC[C@@H](OC(=O)NC45CC(C4)C5)C3)[nH]n2)ccn1 [Example 9, (1R,3S)-3-(3-((2-methylpyridin-4-yl)amino)-1H-pyrazol-5-yl)cyclopentyl bicyclo[1.1.1]pentan-1-ylcarbamate] | 170 | 19 | 1.2 | –
12 | 0.35 | 34 | 60 | 21 | 0.47 | 46 | Cn1cnc(Nc2cc([C@H]3CC[C@@H](OC(=O)NC45CC(C4)C5)C3)[nH]n2)cc1=O [Example 9B, (1R,3S)-3-(3-((1-methyl-6-oxo-1,6-dihydropyrimidin-4-yl)amino)-1H-pyrazol-5-yl)cyclopentyl bicyclo[1.1.1]pentan-1-ylcarbamate] | 33 | 14 | 1.4 | –
190 | 2 | 95 | 200 | 400 | 9.1 | 180 | CNC(=O)c1cc(C)c(Nc2cc([C@H]3CC[C@@H](OC(=O)NC45CC(C4)C5)C3)[nH]n2)cn1 [Example 9C, (1R,3S)-3-(3-((4-methyl-6-(methylcarbamoyl)pyridin-3-yl)amino)-1H-pyrazol-5-yl)cyclopentyl bicyclo[1.1.1]pentan-1-ylcarbamate] | 180 | 51 | 1.0 | –
69 | 2.1 | 33 | 90 | 190 | 1 | 220 | CNC(=O)c1cnc(Nc2cc([C@H]3CC[C@@H](OC(=O)NC45CC(C4)C5)C3)[nH]n2)c(C)n1 [Example 9E, (1R,3S)-3-(3-((3-methyl-5-(methylcarbamoyl)pyrazin-2-yl)amino)-1H-pyrazol-5-yl)cyclopentyl bicyclo[1.1.1]pentan-1-ylcarbamate] | 200 | 5 | 1.0 | –
30 | 4.7 | 6.4 | 2 | 9.5 | 0.15 | 39 | CN1CCN(c2ccc(Nc3cc([C@H]4CC[C@@H](OC(=O)NC56CC(C5)C6)C4)[nH]n3)cn2)CC1 [Example 9H, (1R,3S)-3-(3-((6-(4-methylpiperazin-1-yl)pyridin-3-yl)amino)-1H-pyrazol-5-yl)cyclopentyl bicyclo[1.1.1]pentan-1-ylcarbamate] | 150 | 1 | 0.26 | –
8.9 | 0.38 | 23 | 97 | 37 | 0.36 | 6.9 | O=C(NC12CC(C1)C2)O[C@@H]1CC[C@H](c2cc(Nc3ccc(CO)nc3)n[nH]2)C1 [Example 9I, (1R,3S)-3-(3-((6-(hydroxymethyl)pyridin-3-yl)amino)-1H-pyrazol-5-yl)cyclopentyl bicyclo[1.1.1]pentan-1-ylcarbamate] | 30 | 12 | 0.23 | –

The remaining lines, values behind:

Compound | Ki [1] [nM] | Ki [2, 5] [nM] | FS CDK1/CDK2 ([2]; Table O) | FS CDK4/CDK2 ([2]; Table O) | Ki [3] [nM] | IC50 (SKOV-3 (ATCC HTB-77)) [µM] | IC50 (HCT116 cells) [nM] | IC50 [4] [nM] | FS SKOV-3/OVISE [4] | FS p-H3/OVISE [4] | other results
Cn1nc(Nc2cc([C@H]3CC[C@@H](OC(=O)NC(C)(C)C)C3)[nH]n2)ccc1=O [Example 6C, (1R,3S)-3-(3-((1-methyl-6-oxo-1,6-dihydropyridazin-3-yl)amino)-1H-pyrazol-5-yl)cyclopentyl tert-butylcarbamate] | 3.6 | < 0.1 | >47 | >584 | 45 | 1.5 | 26 | 30 | 50 | 0.087 | FS CDK1/CDK2 increased over Comparator D, (+) sign ([1]; Table R): (+); FS CDK1/CDK2 ([1]; Table R): > 47; FS CDK1/CDK2 increased over Comparator E, (+) sign ([1]; Table S): (+); FS CDK1/CDK2 ([1]; Table S): > 47; Ki ([2]; Table R, enzymatic assay, read-out: CDK2 Ki): < 0.1 nM; CDK2 Ki fold change in potency versus Comparator D ([2]; Table R, in brackets after CDK2 Ki): 27 fold; Ki ([2]; Table S, enzymatic assay, read-out: CDK2 Ki): < 0.1 nM; CDK2 Ki fold change in potency versus Comparator E ([2]; Table S, in brackets after CDK2 Ki): 5.2 fold; FS CDK4/CDK2 increased over Comparator D, (+) sign ([3]; Table R): (+); FS CDK4/CDK2 ([3]; Table R): > 584; FS CDK4/CDK2 increased over Comparator E, (+) sign ([3]; Table S): (+); FS CDK4/CDK2 ([3]; Table S): > 584; CDK2 cell potency compared with Comparator E ([4]; CDK2 OVISE cellular assay data): more potent CDK2 cell inhibitors compared to Comparator E; CDK2 OVISE IC50 fold change in potency versus Comparator D ([4]; Table R, in brackets after OVISE IC50): 127 fold; CDK2 OVISE IC50 fold change in potency versus Comparator E ([4]; Table S, in brackets after OVISE IC50): 5.7 fold; selectivity for CDK2 over CDK4 compared with Comparator E (SKOV-3 (ATCC HTB-77); SKOV-3/OVISE fold-selectivity cellular assay data): increase in selectivity for CDK2 over CDK4; FS SKOV-3/OVISE increased over Comparator D, (+) sign (SKOV-3 (ATCC HTB-77); Table R): (+); FS SKOV-3/OVISE (SKOV-3 (ATCC HTB-77); Table R): 50; FS SKOV-3/OVISE increased over Comparator E, (+) sign (SKOV-3 (ATCC HTB-77); Table S): (+); FS SKOV-3/OVISE (SKOV-3 (ATCC HTB-77); Table S): 50
CC(CC(F)(F)F)NC(=O)O[C@@H]1CC[C@H](c2cc(Nc3ccc(=O)n(C)n3)n[nH]2)C1 (stereo partly drawn) [Example 6D, (1R,3S)-3-(3-((1-methyl-6-oxo-1,6-dihydropyridazin-3-yl)amino)-1H-pyrazol-5-yl)cyclopentyl (4,4,4-trifluorobutan-2-yl)carbamate] | 3.6 | 0.21 | 17 | 290 | 61 | 4.3 | 72 | 77 | 56 | 0.94 | –
C[C@H](NC(=O)O[C@@H]1CC[C@H](c2cc(Nc3ccc(=O)n(C)n3)n[nH]2)C1)c1ccccc1 [Example 6E, (1R,3S)-3-(3-((1-methyl-6-oxo-1,6-dihydropyridazin-3-yl)amino)-1H-pyrazol-5-yl)cyclopentyl ((S)-1-phenylethyl)carbamate] | 48 | 2.9 | 17 | 6.2 | 18 | 15 | 290 | 320 | 47 | 0.91 | –
Cc1nc(C(=O)N(C)C)ccc1Nc1cc([C@H]2CC[C@@H](OC(=O)NC3(C)CC3)C2)[nH]n1 [Example 7, (1R,3S)-3-(3-((6-(dimethylcarbamoyl)-2-methylpyridin-3-yl)amino)-1H-pyrazol-5-yl)cyclopentyl (1-methylcyclopropyl)carbamate] | 23 | 0.36 | 64 | 110 | 38 | 3.8 | 50 | 58 | 66 | 0.86 | Ki ([2]; read-out: CDK2 activity / potency (enzymatic assay)): ≤ 1 nM
Cc1nccnc1Nc1cc([C@H]2CC[C@@H](OC(=O)NC3(C)COC3)C2)[nH]n1 [Example 8B, (1R,3S)-3-(3-((3-methylpyrazin-2-yl)amino)-1H-pyrazol-5-yl)cyclopentyl (3-methyloxetan-3-yl)carbamate] | 52 | 0.66 | 79 | 212 | 140 | 3 | 140 | 87 | 34 | 1.6 | –
Cc1ncccc1Nc1cc([C@H]2CC[C@@H](OC(=O)NC3(C)COC3)C2)[nH]n1 [Example 8] | 160 | 3.1 | 52 | 213 | 660 | 15 | 560 | 320 | 47 | 1.8 | –
